Patent US20050209298A1, “Method of photodynamic diagnosis for vascular diseases” (HAMAMATSU PHOTONICS K.K, priority 2002, published 2005)

Tests used:
[1] = tested on: Keratinocytes from a patient with inflammatory keratosis; test: Cytotoxicity of PDT against cultured keratinocytes; format: cell-based, human; conditions: 50 μg/mL; laser 10 J/cm^2; 6 hours after laser irradiation; viable cells prior to irradiation = 100%
Description: FIG. 6 is a graph showing cytotoxic effects of PDT using ATX-S10•Na of the present invention on cultured keratinocytes. 50 μg/mL of ATX-S10•Na of the present invention was added to the cell culture. After a predetermined culture period, the cells were washed with PBS and were irradiated with laser at 10 J/cm^2. The viability of the keratinocytes was determined 1, 2, 3, 6, 12, and 24 hours after the irradiation and was plotted on a graph.
Test 3 (in vitro Test): Cytotoxicity Against Cultured Keratinocytes
Keratinocytes were collected from a patient with inflammatory keratosis and were cultured at 37° C. for 24 hours. To the cell culture, 50 μg/mL of ATX-S10•Na of the present invention was added and the cells were further cultured under the same conditions.
Assuming the initial number of the viable cells in the culture medium prior to laser irradiation to be 100%, the viability of the cells was determined at 1, 2, 3, 6, 12, and 24 hours after the irradiation. As shown, 75% of the keratinocytes incubated with ATX-S10•Na died 6 hours after laser irradiation.

[2] = tested on: TPA-caused dermatitis; test: TPA-induced dermatitis in mouse skin: skin accumulation and PDT after ATX-S10•Na ointment; format: in vivo, mice; conditions: 1% ointment, 3 hours
Description: Test 4 (in vivo Test): Induction of Dermatitis in Mouse Skin by Treatment with Tetradecanoyl Phorbol Acetate (TPA) and Therapeutic Effects of PDT Following Application of ATX-S10•Na Ointment Using a hydrophilic ointment base described in Japanese Pharmacopoeia, two hydrophilic ointments, one containing 1% of ATX-S10•Na and the other 10% of the compound, were prepared by a common pharmaceutical technique. Male DBA/1 mice, aged 6 to 8 weeks and weighing 15 to 18 g, were shaved with a clipper and a razor. TPA was then applied to the skin to induce dermatitis. 3) To a test group, the hydrophilic ointment containing 1% ATX-S10•Na was applied. The ointment was applied to the region of the skin where dermatitis was induced and was rinsed off after 3 hours. To a control group, an ATX-S10•Na-free hydrophilic ointment was applied and was also rinsed off after application. […] The test group was then divided into two subgroups: one group was irradiated with laser at 100 J/cm^2 and the other group was not irradiated. Skin histology of each animal was observed.

[3] = tested on: type II collagen-induced arthritis; test: Effects of PDT on model mice with type II collagen-induced arthritis; format: in vivo; conditions: 5 mg/kg i.v.
Description: Test 2 (in vivo Test): Effects of PDT on Model Mice with Type II Collagen-Induced Arthritis Male DBA/1 mice, aged6 to 8 weeks and weighing 15 to 18 g, were used. Arthritis was induced by type II collagen according to the following schedule. On Day 0, 2 mg. of anti-type II collagen antibody cocktail was intraperitoneally injected. On Day 1, 2 mg of anti-type II collagen antibody cocktail was again intraperitoneally injected. On Day 2 and Day 3, 50 μg of lipopolysaccharide (LPS) was intraperitoneally injected to induce type II collagen arthritis. On Day 5, induction of type II collagen arthritis was confirmed. A test group of 5 animals and a control group of 3 animals were intravenously injected with 5 mg/kg of ATX-S10•Na. The test group was exposed to laser irradiation (dose: 30 J/cm^2) 3 hours after administration of ATX-S10•Na. […] Each animal was perfusion-fixed, and joint tissue was collected and stained with Safranin 0. The resulting decalcified tissue sample was subjected to histological analysis.

[4] = tested on: Human Umbilical Vein Endothelial Cells (HUVECS); test: Effects of PDT on inflamed human umbilical vein endothelial cells (MTT viability); format: cell-based; conditions: non-irradiated groups (0 J/cm^2); 25 or 50 μg/mL
Description: Test 1 (in vitro Test): Effects of PDT on Human Umbilical Vein Endothelial Cells (HUVECS)
As a first step, we determined if cell death of inflamed HUVECs can be induced by PDT.
HUVECs were seeded in a culture medium at […]. After a predetermined culture period, IL-1β(1 ng/mL) and TNF-α(10 ng/mL) were added to stimulate the cells and, thus, cause inflammation of the cells. After a 1-hour stimulation period, the cells were divided into two groups, and 25 μg/ml of ATX-S10•Na of the present invention was added to one group and 50 μg/ml of ATX-S10•Na to the other group. Subsequently, the cells were incubated at 37° C. for 24 hours.
After the incubation period, laser was irradiated onto the cultured cells (each dosage group was divided into five subgroups, which were irradiated at 0, 15, 30, 50, and 100 J/cm^2). 24 hours after the irradiation, the viability of HUVECs was determined by MTT assay.

Structure (SMILES): C=CC1=C(C)C2=CC3=C(/C=C/NO)C(C)(O)C(=CC4=NC(=CC5=NC(=CC1=N2)C(C)=C5CCC(=O)N[C@@H](CC(=O)[O-])C(=O)[O-])C(CCC(=O)N[C@@H](CC(=O)[O-])C(=O)[O-])=C4C)N3.[Na+].[Na+].[Na+].[Na+] (stereo partly shown) [ATX-S10•Na]
- keratinocytes died [1]: 75%
- TPA-caused dermatitis inflamed region (skin histology) ([2]; laser 100 J/cm^2): significant decrease in the inflamed region
- TPA-caused dermatitis inflamed region (skin histology) ([2]; non-irradiated group): sustained
- synovial infiltration (histological analysis of joint tissue) ([3]; laser 30 J/cm^2, test group): synovial infiltration was suppressed
- synovial infiltration (histological analysis of joint tissue) ([3]; no laser irradiation (control group)): significant infiltration of synovial cells
- clinical arthritis score ([3]; no laser irradiation (control group), Day 14): 4
- cell death of HUVECs [4]: no cell death was observed
